Experimental data: patent US12122802B2, “D-allose crystal and production method thereof” (MATSUTANI CHEMICAL INDUSTRY CO., LTD., priority 2019, dated 2024)

Experiments:
[1] = repose angle measured by powder tester PT-E (fluidity of anhydrous D-allose crystals); type: physicochemical; conditions: for Repose angle (degrees): drying tests of Table 6, crystals after the named drying conditions; for Degree of fluidity: drying tests of Table 6, evaluated from repose angle according to Table 4
Protocol: The fluidity of the anhydrous D-allose crystals obtained by drying the hydrous crystals obtained in each of Tests Nos. 1 to 12 with an evaporator (30° C., 20 hPa (abs), about 2 hours) as described above was evaluated by the repose angle measured by a powder tester PT-E (manufactured by Hosokawa Micron Corporation). Specifically, a sample was dropped and deposited on a disk, and the inclination angle was measured from three directions to obtain an average value. From the average value, the degree of fluidity was evaluated according to Table 1 in the Japanese Pharmacopoeia, 17th edition, Reference Information G2 physical property-related “Powder Fluidity” (same as the so-called Carr's fluidity index table, shown as Table 4).
(§1) In order to measure the water content in the crystals obtained by each of the drying methods, drying under reduced pressure under conditions at 70° C. for 18 hours was performed to calculate the water content in the crystals from the weight loss through the drying under reduced pressure. The repose angle was measured by the method described above to determine the degree of fluidity. The yield rate was calculated by the following expression. Yield rate (%)=(D/C)×100 [Expression 4]

[2] = water content in crystals from weight loss on drying under reduced pressure at 70° C. for 18 hours; type: physicochemical; conditions: hydrous D-allose crystals (purity 99.9%, water content 17.7%) dried under the named drying conditions
Protocol: as §1

cancer cells = conditions: cited from earlier work
active oxygen in cells = conditions: cited from earlier work
[3] = in vivo; cited from earlier work

| Compound | Repose angle (degrees) [1] | Degree of fluidity [1] | Water content (%) after drying [2] | effect on growth of cancer cells (cancer cells) | effect on generation of active oxygen in cells (active oxygen in cells) | effect on increase in blood pressure [3] |
| --- | --- | --- | --- | --- | --- | --- |
| O=C[C@H](O)[C@H](O)[C@H](O)[C@H](O)CO [Conductive heat transfer drying at 70° C.] [D-allose] | 44 degrees | Passable (41~45) | 0.105% | – | – | – |
| O=C[C@H](O)[C@H](O)[C@H](O)[C@H](O)CO [Convection heat transfer drying at 40° C., Air supply: 3900 ] [D-allose] | 41.3 degrees | Passable (41~45) | 0.14% | – | – | – |
| O=C[C@H](O)[C@H](O)[C@H](O)[C@H](O)CO [Convection heat transfer drying at 40° C., Air supply: 6000 ] [D-allose] | 41.7 degrees | Passable (41~45) | 0.13% | – | – | – |
| O=C[C@H](O)[C@H](O)[C@H](O)[C@H](O)CO [Convection heat transfer drying at 50° C., Air supply: 4700 ] [D-allose] | 42 degrees | Passable (41~45) | 0.13% | – | – | – |
| O=C[C@H](O)[C@H](O)[C@H](O)[C@H](O)CO [D-allose] | – | – | – | effect for suppressing growth of cancer cells | effect for suppressing generation of active oxygen in cells | effect for suppressing an increase in blood pressure |
| O=C[C@H](O)[C@H](O)[C@H](O)[C@H](O)CO [Ultra-low humidity drying (20 to 24° C.), D-allose] | 45.7 degrees | Passable (41~45) | 0.052% | – | – | – |
